What was measured:
[1] = tested on: rats with Adjuvant Arthritis (AA); assay: Adjuvant arthritis (AA) in rats: change in body weight; format: in vivo, male Lewis rats; conditions: for increase in body weight relative to that of the healthy controls: 900 mg/kg/day, end of the study
Method: (§1) AA was induced by a single intradermal injection of Mycobacterium butyricum in […] Freund's adjuvant. The study involved one group of healthy animals (HC), one group of untreated arthritic animals (AC) and two groups of arthritic animals treated with two different regimens. The first treatment regimen involved pre-treatment consisting of administration of 900 mg/kg of biotechnological CS a day for 14 days before arthritis was induced, continuing for 28 days after the induction of AA (PT). The second treatment regimen involved the administration of 900 mg/kg of biotechnological CS a day only during the 28 days after induction of AA (T).
(§2) 40 male Lewis rats weighing between 150 and 190 g were divided at random into four groups of 10 animals each, housed in polypropylene cages in an environment maintained at the temperature of 22±2° C., and fed on a standard laboratory diet with unlimited access to water.
(§3) The experimental groups were as follows:
(§4) 3) A group of arthritic rats orally treated with biotechnological CS at the dose of 900 mg/day per kg of body weight for 28 days after induction of AA (days 0-28 of the experiment) (T).
(§5) 4) A group orally pre-treated with biotechnological CS at the dose of 900 mg/day per kg of body weight for 14 days preceding the induction of AA, and for the 28 days after induction of AA (days −14 to 28 of the experiment) (PT).
(§6) The CS of the invention was dissolved in distilled water at the concentration of 20 mg/ml and administered orally as a single daily dose by gavage.
The body weight of the rats was measured before induction of AA (day 0), on days 7, 14 and 21, and at the end of the treatment (day 28). The effect of the treatment on this parameter was evaluated by comparing the weight increases of the different groups during the treatment period.

[2] = tested on: rats with Adjuvant Arthritis (AA); assay: Adjuvant arthritis (AA) in rats: hind paw oedema; format: in vivo, male Lewis rats
Method: as §1, §2, §3, §4, §5, §6
The oedema that developed as a consequence of arthritis was measured by observing the increase in volume of the hind paw with a caliper suitable for the measurement. The measurements were performed before the induction of AA (day 0) and on days 7, 14, 21 and 28 of the study.
The data were expressed as the percentage increase in oedema calculated with the following formula: [(Dayn/Day0)×100]−100, Day0 being the measurement on the initial day and Dayn the measurement on the day considered.

[3] = tested on: rats with Adjuvant Arthritis (AA); assay: Adjuvant arthritis (AA) in rats: arthritis score; format: in vivo, male Lewis rats; parameters: key to Arthritis score: sum of oedema (1-8), forepaw diameter (1-5), scab diameter (1-5) scores
Method: as §1, §2, §3, §4, §5, §6
The arthritis score was evaluated by allocating a score to the observation of paw joint swelling (oedema), the extent of periarticular erythema and the diameter of the scab at the adjuvant injection site at the base of the tail. The arthritis score or arthrogram was measured as the sum total of oedema (in ml, score 1 to 8), plus the diameter of the forepaw (in mm, max score 1 to 5), plus the diameter of the scab at the site of application of Mycobacterium butyricum measured parallel to the spinal column (in mm, max score 1 to 5), for each animal.

interleukin-6 (IL-6) = assay: AA rat model, biotech vs animal LMW-CS: IL-6 plasma levels; format: in vivo, male Lewis rats
Method: (§7) As described in Example 5, commercial (high-molecular-weight) chondroitin sulfate material was subjected to depolymerization according to Cho, under controlled condition, until the desired mean MW was reached.
(§8) The product of Example 5 was tested in vivo vs. biotechnological chondroitin of the invention obtained as described in Ex. 4 (equivalent to the product obtained from any of the Examples 1, 2 or 3).
(§9) Two key parameters were analyzed to determine the efficacy of the treatment in reducing the inflammation related to osteoarthritis: C reactive protein (CRP) and interleukin-6 (IL-6) plasma levels. […] CRP is another important marker for systemic inflammation, its plasmatic level rises up during arthritis progression. AA was induced in male Lewis rats with a single intradermal injection of heat-inactivated Mycobacterium butyricum in […] Freund's adjuvant. The following anti-osteoarthritic treatment consisted in daily oral (900 mg/kg b.w.) administrations of LMW-CS starting from day 0, i.e. the day of bacterial inoculation.

C reactive protein (CRP) = assay: AA rat model, biotech vs animal LMW-CS: CRP plasma levels; format: in vivo, male Lewis rats
Method: as §7, §8, §9

[4] = tested on: auxotrophic strains of E. coli; assay: Bacterial reverse mutation test (OECD 471); format: cell-based
Method: (§10) The CS according to the invention was also tested for its toxicological safety in animals and on cell cultures according to various protocols designed to assess its potential genotoxicity at cell level and acute oral toxicity in the rat. All the tests used were validated and conducted according to OECD guidelines for pharmaceutical products.
(§11) The biotechnological CS was subjected to mutagenesis tests in bacterial cells (bacterial reverse mutation, Ref. OECD 471) which tested the ability of the product to induce the appearance of reverse mutants in auxotrophic strains of E. coli and Salmonella typhimurium.

[5] = tested on: auxotrophic strains of Salmonella typhimurium; assay: Bacterial reverse mutation test (OECD 471); format: cell-based
Method: as §10, §11

Sprague-Dawley rats = assay: Acute toxicity after oral administration; format: in vivo; conditions: up to 2000 mg/kg body weight
Method: as §10
Finally, acute toxicity after oral administration was examined in Sprague-Dawley rats up to the dose of 2000 mg/kg of body weight.

[6] = Pre-Treatment (PT): 900 mg/kg/day oral, days −14 to 28, day 0
[7] = Pre-Treatment (PT): 900 mg/kg/day oral, days −14 to 28, day 7
[8] = Pre-Treatment (PT): 900 mg/kg/day oral, days −14 to 28, day 14
[9] = Pre-Treatment (PT): 900 mg/kg/day oral, days −14 to 28, day 21
[10] = Pre-Treatment (PT): 900 mg/kg/day oral, days −14 to 28, day 28
[11] = Treatment (T): 900 mg/kg/day oral, days 0-28, day 0
[12] = Treatment (T): 900 mg/kg/day oral, days 0-28, day 7
[13] = Treatment (T): 900 mg/kg/day oral, days 0-28, day 14
[14] = Treatment (T): 900 mg/kg/day oral, days 0-28, day 21
[15] = Treatment (T): 900 mg/kg/day oral, days 0-28, day 28
[16] = daily oral 900 mg/kg b.w. from day 0, day 14
[17] = daily oral 900 mg/kg b.w., 14 days of treatment

“Low-molecular-weight chondroitin sulfate sodium salt [LMW-CS]” was tested. Which “Change in body weight: Δ(dayn − day0)” value [1, 6] did it give?
Its value is 0.0 g.

And the “Change in body weight: Δ(dayn − day0)” value [1, 7]?
The value was 92.96 g.

What about the “Change in body weight: Δ(dayn − day0)” value [1, 8] of the same substance?
Its value is 107.26 g.

And the “Change in body weight: Δ(dayn − day0)” value [1, 9]?
Its value is 93.39 g.

What about the “Change in body weight: Δ(dayn − day0)” value [1, 10] of the same substance?
Its value is 108.63 g.

And the “increase in body weight relative to that of the healthy controls” value ([1]; Pre-treatment (PT))?
Its value is 73%.

And the “Change in body weight: Δ(dayn − day0)” value [1, 11]?
The value was 0.0 g.

And the “Change in body weight: Δ(dayn − day0)” value [1, 12]?
The value was 85.19 g.

What about the “Change in body weight: Δ(dayn − day0)” value [1, 13] of the same substance?
The value was 89.19 g.

And the “Change in body weight: Δ(dayn − day0)” value [1, 14]?
Its value is 68.39 g.

What about the “Change in body weight: Δ(dayn − day0)” value [1, 15] of the same substance?
Its value is 79.78 g.

And the “increase in body weight relative to that of the healthy controls” value ([1]; Treatment alone (T))?
The value was 54%.

And the “Change in hind paw swelling: [(Dayn/Day0) × 100] − 100” value (“Change … [(Dayn/Day0) × 100] − 100” for short) [2, 6]?
The value was 0.0%.

And the “Change … [(Dayn/Day0) × 100] − 100” value [2, 7]?
Its value is 15.4%.

What about the “Change … [(Dayn/Day0) × 100] − 100” value [2, 8] of the same substance?
The value was 26.7%.

And the “Change … [(Dayn/Day0) × 100] − 100” value [2, 9]?
The value was 46.5%.

What about the “Change … [(Dayn/Day0) × 100] − 100” value [2, 10] of the same substance?
The value was 49.7%.

What about the “oedema developed in the hind paw vs untreated controls” value ([2]; Pre-treated animals (PT), 900 mg/kg/day) of the same substance?
The value was “significantly reduced”.

And the “Change … [(Dayn/Day0) × 100] − 100” value [2, 11]?
The value was 0.0%.

What about the “Change … [(Dayn/Day0) × 100] − 100” value [2, 12] of the same substance?
The value was 13.1%.

And the “Change … [(Dayn/Day0) × 100] − 100” value [2, 13]?
Its value is 34.5%.

What about the “Change … [(Dayn/Day0) × 100] − 100” value [2, 14] of the same substance?
Its value is 62.8%.

What about the “Change … [(Dayn/Day0) × 100] − 100” value [2, 15] of the same substance?
Its value is 61.4%.

And the Arthritis score [3, 6]?
Its Arthritis score is 10.0.

And the Arthritis score [3, 7]?
The Arthritis score was 10.1.

And the Arthritis score [3, 8]?
Its Arthritis score is 13.1.

And the Arthritis score [3, 9]?
The Arthritis score was 15.8.

What about the Arthritis score ([3]; Pre-Treatment (PT): 900 mg/kg/day oral, days −14 to 28, day 28, listed as biotechnological CS, sulfate sodium salt) of the same substance?
The Arthritis score was 19.

And the Arthritis score ([3]; Pre-Treatment (PT): 900 mg/kg/day oral, days −14 to 28, day 28, sulfate sodium salt)?
Its Arthritis score is 19.0.

What about the Arthritis score [3, 11] of the same substance?
The Arthritis score was 10.0.

What about the Arthritis score [3, 12] of the same substance?
Its Arthritis score is 10.0.

What about the Arthritis score [3, 13] of the same substance?
Its Arthritis score is 18.1.

And the Arthritis score [3, 14]?
The Arthritis score was 22.7.

And the Arthritis score [3, 15]?
The Arthritis score was 23.0.

And the “influence on arthritis score during the study period” value ([3]; Treatment-only (T) group, 900 mg/kg/day)?
Its value is “did not significantly influence”.

And the IL-6 plasma levels (interleukin-6 (IL-6); [16])?
Its IL-6 plasma levels is 233.9 pg/mL.

What about the “effect of treatment on IL-6 plasma levels” value (interleukin-6 (IL-6); [17]) of the same substance?
The value was “decreased”.

And the CRP plasma levels (C reactive protein (CRP); [16])?
Its CRP plasma levels is 548.8 µg/mL.

What about the “effect of treatment on CRP plasma levels” value (C reactive protein (CRP); [17]) of the same substance?
Its value is “decreased”.

What about the “bacterial mutagenicity (reverse mutants)” value [4] of the same substance?
The value was “No significant increase”.

What about the “bacterial mutagenicity (reverse mutants)” value [5] of the same substance?
Its value is “No significant increase”.

And the clinical signs (Sprague-Dawley rats; 14 days observation)?
Its clinical signs is “did not show any clinical signs of suffering”.

And the mortality (Sprague-Dawley rats; 14 days observation)?
Its mortality is “no mortality occurred”.

And the “autopsy of tissues and organs” value (Sprague-Dawley rats; end of the study)?
The value was “did not indicate any signs of toxicity”.
